Results published in US11739100B2, “2,3-dihydro-1h-imidazo{1,2-a}pyrimidin-5-one and this 1,2,3,4-tetrahydropyrimido{1,2-a}pyrimidin-6-one derivatives comprising a substituted morpholine, preparation thereof and pharmaceutical use thereof” (SANOFI, priority 2012, dated 2023).

Target: T1, recombinant Vps34 (Homo sapiens, UniProt Q8NEB9)
T1 construct: purchased Invitrogen PV5126
Assay: Phosphorylation of phosphatidylinositol (PI) by Vps34 in vitro, ADP detected by TR-FRET (HTRF Transcreener ADP)
Type: biochemical
Conditions: 10 μM ATP, 55 μg/ml PI, approximately 3 nM Vps34, 1 hour at ambient temperature; absolute IC50, mean of two independent experiments; read-out: IC50 activity range

T1 sequence (Q8NEB9 whole entry): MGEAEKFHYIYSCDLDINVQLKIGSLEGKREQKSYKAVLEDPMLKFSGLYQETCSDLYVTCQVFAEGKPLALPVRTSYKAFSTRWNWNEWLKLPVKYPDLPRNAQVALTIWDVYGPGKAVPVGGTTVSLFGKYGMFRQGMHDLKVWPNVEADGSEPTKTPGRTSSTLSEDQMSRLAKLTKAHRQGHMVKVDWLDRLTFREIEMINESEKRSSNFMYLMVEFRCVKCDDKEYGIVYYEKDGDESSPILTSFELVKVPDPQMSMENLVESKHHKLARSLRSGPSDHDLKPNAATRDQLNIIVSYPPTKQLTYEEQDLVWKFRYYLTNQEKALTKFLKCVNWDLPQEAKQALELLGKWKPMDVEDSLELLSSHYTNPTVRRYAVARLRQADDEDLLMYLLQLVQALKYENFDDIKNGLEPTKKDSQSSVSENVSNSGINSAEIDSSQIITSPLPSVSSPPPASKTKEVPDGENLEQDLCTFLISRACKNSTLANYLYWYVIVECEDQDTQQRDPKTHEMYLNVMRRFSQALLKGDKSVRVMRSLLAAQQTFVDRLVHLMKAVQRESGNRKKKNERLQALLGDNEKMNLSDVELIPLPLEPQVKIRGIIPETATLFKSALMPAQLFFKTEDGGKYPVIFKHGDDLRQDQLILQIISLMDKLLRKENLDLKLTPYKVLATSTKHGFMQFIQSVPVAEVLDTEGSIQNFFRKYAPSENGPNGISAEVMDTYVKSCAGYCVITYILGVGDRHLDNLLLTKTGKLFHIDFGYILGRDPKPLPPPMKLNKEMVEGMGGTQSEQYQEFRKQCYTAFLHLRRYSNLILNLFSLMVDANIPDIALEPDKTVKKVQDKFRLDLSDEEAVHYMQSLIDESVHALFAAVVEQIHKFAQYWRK

Structure (SMILES)	IC50
C[C@@H]1COCCN1c1nc2n(c(=O)c1F)CC[C@@H](C(F)(F)F)N2CC(=O)c1cccnc1 [Example 50, (S)-3-Fluoro-2-((R)-3-methylmorpholin-4-yl)-9-(2-oxo-2-pyridin-3-ylethyl)-8-trifluoromethyl-6,7,8,9-tetrahydro-pyrimido[1,2-a]-pyrimidin-4-one]	< 10 nM
C[C@@H]1COCCN1c1nc2n(c(=O)c1F)CC[C@@H](C(F)(F)F)N2Cc1ccc(F)nc1 [Example 51, (S)-3-Fluoro-9-(6-fluoropyridin-3-yl-methyl)-2-((R)-3-methylmorpholin-4-yl)-8-trifluoromethyl-6,7,8,9-tetrahydro-pyrimido[1,2-a]-pyrimidin-4-one]	< 10 nM
C[C@@H]1COCCN1c1nc2n(c(=O)c1F)C[C@@](C)(C(F)(F)F)N2CC(=O)c1ccccn1 [Example 199, (S)-6-Fluoro-2-methyl-7-((R)-3-methyl-morpholin-4-yl)-1-(2-oxo-2-pyridin-2-yl-ethyl)-2-trifluoromethyl-2,3-dihydro-1H-imidazo[1,2-a]-pyrimidin-5-one]	< 10 nM
Cc1cc(CN2c3nc(N4CCOC[C@H]4C)cc(=O)n3CC[C@H]2C(F)(F)F)on1 [Example 101, (S)-9-(3-Methyl-isoxazol-5-ylmethyl)-2-((R)-3-methyl-morpholin-4-yl)-8-trifluoromethyl-6,7,8,9-tetrahydro-pyrimido[1,2-a]-pyrimidin-4-one]	< 10 nM
C[C@@H]1COCCN1c1cc(=O)n2c(n1)N(CC(=O)c1ccccn1)[C@H](C(F)(F)F)CC2 [Example 1, (S)-2-((R)-3-Methyl-morpholin-4-yl)-9-(2-oxo-2-pyridin-2-yl-ethyl)-8-trifluoromethyl-6,7,8,9-tetrahydro-pyrimido[1,2-a]-pyrimidin-4-one]	< 10 nM
C[C@@H]1COCCN1c1cc(=O)n2c(n1)N(Cc1cnco1)CC[C@@H]2C(F)(F)F [Example 117, (R)-2-((R)-3-Methyl-morpholin-4-yl)-9-oxazol-5-ylmethyl-6-trifluoromethyl-6,7,8,9-tetrahydro-pyrimido[1,2-a]-pyrimidin-4-one]	10 to 100 nM
CC(=O)CN1c2nc(N3CCOC[C@H]3C)c(F)c(=O)n2CC[C@H]1C(F)(F)F [Example 7, (S)-3-Fluoro-2-((R)-3-methylmorpholin-4-yl)-9-(2-oxopropyl)-8-trifluoromethyl-6,7,8,9-tetrahydro-pyrimido[1,2-a]-pyrimidin-4-one]	< 10 nM
O=c1cc(N2CCOCC2CO)nc2n1CC[C@@H](C(F)(F)F)N2c1cc(F)cc(F)c1 (single isomer, unassigned) [Example 176]	> 100 nM
C[C@@H]1COC[C@@H](C)N1c1cc(=O)n2c(n1)N(c1cccnc1)[C@H](C(F)(F)F)CC2 [Example 160, (S)-2-((3R,5R)-3,5-Dimethylmorpholin-4-yl)-9-pyridin-3-yl-8-trifluoromethyl-6,7,8,9-tetrahydro-pyrimido[1,2-a]-pyrimidin-4-one]	< 10 nM
C[C@@H]1COCCN1c1nc2n(c(=O)c1F)CCC(C)(C)N2Cc1ccon1 [Example 73, 3-Fluoro-9-isoxazol-3-ylmethyl-8,8-dimethyl-2-((R)-3-methyl-morpholin-4-yl)-6,7,8,9-tetrahydro-pyrimido[1,2-a]-pyrimidin-4-one]	10 to 100 nM
CCOC(=O)CN1c2nc(N3CCOC[C@H]3C)cc(=O)n2CC[C@H]1C(F)(F)F [Example 14, [(S)-8-((R)-3-Methyl-morpholin-4-yl)-6-oxo-2-trifluoromethyl-3,4-dihydro-2H,6H-pyrimido[1,2-a]-pyrimidin-1-yl]acetic acid ethyl ester]	< 10 nM

Next, values leading:

IC50	Structure (SMILES)
< 10 nM	C[C@@H]1COCCN1c1nc2n(c(=O)c1F)CC[C@@H](C(F)(F)F)N2Cc1ccc(Cl)nc1 [Example 52, (S)-9-(6-Chloro-pyridin-3-ylmethyl)-3-fluoro-2-((R)-3-methyl-morpholin-4-yl)-8-trifluoromethyl-6,7,8,9-tetrahydro-pyrimido[1,2-a]-pyrimidin-4-one]
< 10 nM	C[C@@H]1COCCN1c1cc(=O)n2c(n1)N(Cc1ncco1)[C@](C)(C(F)(F)F)CC2 [Example 239, (S)-8-Methyl-2-((R)-3-methylmorpholin-4-yl)-9-oxazol-2-ylmethyl-8-trifluoromethyl-6,7,8,9-tetrahydro-pyrimido[1,2-a]-pyrimidin-4-one]
> 100 nM	Cc1nocc1C(=O)CN1c2nc(N3CCOC[C@H]3C)cc(=O)n2CC[C@H]1C(F)(F)F [Example 268, (S)-9-[2-(3-Methyl-isoxazol-4-yl)-2-oxo-ethyl]-2-((R)-3-methyl-morpholin-4-yl)-8-trifluoromethyl-6,7,8,9-tetrahydro-pyrimido[1,2-a]-pyrimidin-4-one]
10 to 100 nM	C[C@@H]1COCCN1c1cc(=O)n2c(n1)N(Cc1ccon1)C(C)(C)CC2 [Example 298, 9-Isoxazol-3-ylmethyl-8,8-dimethyl-2-((R)-3-methylmorpholin-4-yl)-6,7,8,9-tetrahydro-pyrimido[1,2-a]-pyrimidin-4-one]
< 10 nM	COc1cc(N2CC[C@H](C(F)(F)F)n3c2nc(N2CCOC[C@H]2C)c(F)c3=O)ccn1 [Example 119, (R)-3-Fluoro-9-(2-methoxypyridin-4-yl)-2-((R)-3-methyl-morpholin-4-yl)-6-trifluoromethyl-6,7,8,9-tetrahydro-pyrimido[1,2-a]-pyrimidin-4-one]
< 10 nM	C[C@@H]1COCCN1c1nc2n(c(=O)c1F)[C@@H](C(F)(F)F)CCN2c1ccnc(Cl)c1 [Example 122, (R)-9-(2-Chloro-pyridin-4-yl)-3-fluoro-2-((R)-3-methyl-morpholin-4-yl)-6-trifluoromethyl-6,7,8,9-tetrahydro-pyrimido[1,2-a]-pyrimidin-4-one]
< 10 nM	CCC(C)N1c2nc(N3CCOC[C@H]3C)cc(=O)n2CC[C@H]1C(F)(F)F (single isomer, unassigned) [Example 284]
< 10 nM	C[C@@H]1COCCN1c1nc2n(c(=O)c1F)CC[C@@H](C(F)(F)F)N2Cc1ccno1 [Example 46, (S)-3-Fluoro-9-isoxazol-5-ylmethyl-2-((R)-3-methyl-morpholin-4-yl)-8-trifluoromethyl-6,7,8,9-tetrahydro-pyrimido[1,2-a]-pyrimidin-4-one]
> 100 nM	CC(C)C(=O)CN1c2nc(N3CC4CCC(C3)O4)cc(=O)n2CC[C@H]1C(F)(F)F [Example 272, (S)-9-(3-Methyl-2-oxo-butyl)-2-(8-oxa-3-aza-bicyclo[3.2.1]oct-3-yl)-8-trifluoromethyl-6,7,8,9-tetrahydro-pyrimido[1,2-a]-pyrimidin-4-one]
< 10 nM	CC(C)CC(=O)CN1c2nc(N3CCOC[C@H]3C)cc(=O)n2CC[C@H]1C(F)(F)F [Example 276, (S)-2-((R)-3-Methyl-morpholin-4-yl)-9-(4-methyl-2-oxo-pentyl)-8-trifluoromethyl-6,7,8,9-tetrahydro-pyrimido[1,2-a]-pyrimidin-4-one]
< 10 nM	C[C@@H]1COCCN1c1cc(=O)n2c(n1)N(CC(=O)OC(C)(C)C)[C@H](C(F)(F)F)CC2 [Example 260, [(S)-8-((R)-3-Methyl-morpholin-4-yl)-6-oxo-2-trifluoromethyl-3,4-dihydro-2H,6H-pyrimido[1,2-a]-pyrimidin-1-yl]acetic acid tert-butyl ester]
